{
  "source": "patent US10392428B2",
  "about": "“GLP-1 derivatives and uses thereof” (Novo Nordisk A/S, priority 2014, dated 2019)",
  "key": {"human GLP-1 receptor": {"biological_target": "T1, human GLP-1 receptor (Homo sapiens, UniProt P43220)", "T1 construct": "expressed in transfected cells; host or cells: membrane preparation from BHK cells, clone FCW467-12A (parent line BHKTS13)", "T1 sequence (P43220 24-463)": "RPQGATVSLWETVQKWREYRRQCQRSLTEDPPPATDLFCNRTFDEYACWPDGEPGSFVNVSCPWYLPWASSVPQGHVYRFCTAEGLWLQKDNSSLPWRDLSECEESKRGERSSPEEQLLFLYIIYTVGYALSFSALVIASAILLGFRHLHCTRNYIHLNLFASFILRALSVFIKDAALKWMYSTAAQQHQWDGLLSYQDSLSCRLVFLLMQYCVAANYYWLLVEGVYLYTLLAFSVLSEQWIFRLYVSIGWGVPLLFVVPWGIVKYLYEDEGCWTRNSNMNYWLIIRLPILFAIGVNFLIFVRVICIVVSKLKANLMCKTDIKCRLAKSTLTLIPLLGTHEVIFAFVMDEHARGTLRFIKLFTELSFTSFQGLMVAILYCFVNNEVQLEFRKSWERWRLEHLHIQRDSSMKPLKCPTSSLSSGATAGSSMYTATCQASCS", "assay": "GLP-1 receptor binding: competitive binding assay (125I-GLP-1, SPA) on isolated membranes at low and high HSA", "experimental": "The purpose of this example is to test the receptor binding of the GLP-1 derivatives in vitro. The receptor binding is a measure of affinity of a derivative for the human GLP-1 receptor.\nEach derivative is added in a series of concentrations to isolated membranes containing the human GLP-1 receptor and displacement of the labelled ligand is monitored. The receptor binding is reported as the concentration at which half of the labelled ligand is displaced from the receptor, the IC50 value.\nBuffer 1 consisted of 20 mM Na-HEPES plus 10 mM EDTA and pH was adjusted to 7.4. Buffer 2 consisted of 20 mM Na-HEPES plus 0.1 mM EDTA and pH was adjusted to 7.4. Assay buffer consisted of 50 mM HEPES supplemented with 5 mM EGTA, 5 mM MgCl2, 0.005% Tween 20 and pH was adjusted to 7.4. An 8% albumin stock consisted of HSA dissolved at 8% (w/v) in assay buffer. An 0.02% albumin stock consisted of HSA dissolved at 0.02% (w/v) in assay buffer.\nThe cells express the human GLP-1 receptor.\nThe cells were grown at 5% CO2 in DMEM, 10% fetal calf serum, 1% Pen/Strep (Penicillin/Streptomycin) and 1.0 mg/ml of the selection marker G418.\nTo make a membrane preparation the cells were grown to approximately 80% confluence. The cells were washed twice in phosphate-buffered saline and harvested. The cells were pelleted using a brief centrifugation and the cell pellet was kept on ice. […] The homogenate was centrifuged for 15 minutes. The pellet was re-suspended (homogenised) in 10 ml buffer 2 and centrifuged. This step was repeated once more. The resulting pellet was re-suspended in buffer 2 and the protein concentration was determined. The membranes were aliquoted and stored at minus 80° C.\nFor the receptor binding assay in the presence of low HSA (0.005%) 50 μl of the assay buffer was added to each well of an assay plate.\nFor the receptor binding assay in the presence of high HSA (2%) 50 μl of the 8% albumin stock was added to each well of an assay plate.\nCell membrane aliquots were thawed and diluted to their working concentration. Fifty μl were added to each well in the assay plate.\nWGA SPA beads were suspended in assay buffer at 20 mg/ml. The suspension was diluted to 10 mg/ml in assay buffer just prior to addition to the assay plate. Fifty μl were added to each well in the assay plate.\nA 25 μl aliquot was reserved for measuring total counts/well.\nThe assay plate was incubated for 2 h at 30° C.\nThe assay plate was centrifuged for 10 min.\nThe assay plate was read in a Packard TopCount NXT instrument.\nThe data from the TopCount instrument were transferred to Graph Pad Prism software. Individual replicates were analysed using non-linear regression. IC50 values were calculated by the software and reported in nM. The reported values are averages of all of the measured values for each compound."}, "[1]": {"assay": "Pharmacokinetic study in minipigs (i.v.)", "conditions": "male, Göttingen, minipig, in vivo, iv, minipigs, i.v., harmonic mean, read-out: Terminal half-live (converted)", "description": "The derivatives of Examples 12, 14, and 15 were dosed 2 nmol/kg. The derivatives of Examples 1 and 2 were dosed 15 nmol/kg."}},
  "note": "Like-named read-outs stand apart in the source and are kept apart here.",
  "data": [
    {"smiles": "CC[C@H](C)[C@H](NC(=O)[C@H](Cc1ccccc1)NC(=O)[C@H](CCC(=O)O)NC(=O)[C@H](CCCNC(=N)N)NC(=O)[C@H](C)NC(=O)[C@H](C)NC(=O)[C@H](CCC(N)=O)NC(=O)[C@H](CCC(=O)O)NC(=O)[C@H](CCC(=O)O)NC(=O)[C@H](CC(C)C)NC(=O)[C@H](Cc1ccc(O)cc1)NC(=O)[C@H](CO)NC(=O)[C@H](CO)NC(=O)[C@@H](NC(=O)[C@H](CC(=O)O)NC(=O)[C@H](CO)NC(=O)[C@@H](NC(=O)[C@H](Cc1ccccc1)NC(=O)[C@@H](NC(=O)CNC(=O)[C@H](CCC(=O)O)NC(=O)C(C)(C)NC(=O)[C@@H](N)Cc1c[nH]cn1)[C@@H](C)O)[C@@H](C)O)C(C)C)C(=O)N[C@@H](C)C(=O)N[C@@H](Cc1c[nH]c2ccccc12)C(=O)N[C@@H](CC(C)C)C(=O)N[C@H](C(=O)N[C@@H](CCCNC(=N)N)C(=O)NCC(=O)N[C@@H](CCCNC(=N)N)C(=O)N[C@@H](CCCCNC(=O)COCCOCCNC(=O)COCCOCCNC(=O)COCCOCCNC(=O)COCCOCCNC(=O)[C@H](CCCCNC(=O)COCCOCCNC(=O)CC[C@H](NC(=O)[C@H]1CC[C@H](CNC(=O)CCCCCCCCCCCCCCCCCCC(=O)O)CC1)C(=O)O)NC(=O)COCCOCCNC(=O)CC[C@H](NC(=O)[C@H]1CC[C@H](CNC(=O)CCCCCCCCCCCCCCCCCCC(=O)O)CC1)C(=O)O)C(=O)O)C(C)C", "note": "[Example 21, N{Epsilon-37}-[2-[2-[2-[[2-[2-[2-[[2-[2-[2-[[2-[2-[2-[[(2S)-2,6-bis[[2-[2-[2-[[(4S)-4-carboxy-4-[[4-[(19-carboxynonadecanoylamino)methyl]cyclohexanecarbonyl]amino]butanoyl]amino]ethoxy]ethoxy]acetyl]amino]hexanoyl]amino]ethoxy]ethoxy]acetyl]amino]ethoxy]ethoxy]acetyl]amino]ethoxy]ethoxy]acetyl]amino]ethoxy]ethoxy]acetyl]-[Aib8,Glu22,Arg26,Arg34,Lys37]-GLP-1-(7-37)-peptide]", "values": [
      {"measurement": "IC50", "setting": "human GLP-1 receptor; High HSA IC50 (nM), high HSA (2.0% final assay concentration)", "value": 19, "unit": "nM"},
      {"measurement": "IC50", "setting": "human GLP-1 receptor; Low HSA IC50 (nM), low HSA (max. 0.001% final assay concentration)", "value": 1.5, "unit": "nM"}
    ]},
    {"smiles": "CC[C@H](C)[C@H](NC(=O)[C@H](Cc1ccccc1)NC(=O)[C@H](CCC(=O)O)NC(=O)[C@H](CCCNC(=N)N)NC(=O)[C@H](C)NC(=O)[C@H](C)NC(=O)[C@H](CCC(N)=O)NC(=O)[C@H](CCC(=O)O)NC(=O)[C@H](CCC(=O)O)NC(=O)[C@H](CC(C)C)NC(=O)[C@H](Cc1ccc(O)cc1)NC(=O)[C@H](CO)NC(=O)[C@H](CO)NC(=O)[C@@H](NC(=O)[C@H](CC(=O)O)NC(=O)[C@H](CO)NC(=O)[C@@H](NC(=O)[C@H](Cc1ccccc1)NC(=O)[C@@H](NC(=O)CNC(=O)[C@H](CCC(=O)O)NC(=O)C(C)(C)NC(=O)[C@@H](N)Cc1c[nH]cn1)[C@@H](C)O)[C@@H](C)O)C(C)C)C(=O)N[C@@H](C)C(=O)N[C@@H](Cc1c[nH]c2ccccc12)C(=O)N[C@@H](CC(C)C)C(=O)N[C@H](C(=O)N[C@@H](CCCNC(=N)N)C(=O)NCC(=O)N[C@@H](CCCNC(=N)N)C(=O)N[C@@H](CCCCNC(=O)COCCOCCNC(=O)COCCOCCNC(=O)COCCOCCNC(=O)COCCOCCNC(=O)COCCOCCNC(=O)COCCOCCNC(=O)[C@H](CCCCNC(=O)CC[C@H](NC(=O)[C@H]1CC[C@H](CNC(=O)CCCCCCCCCCCCCCCCCCC(=O)O)CC1)C(=O)O)NC(=O)CC[C@H](NC(=O)[C@H]1CC[C@H](CNC(=O)CCCCCCCCCCCCCCCCCCC(=O)O)CC1)C(=O)O)C(=O)O)C(C)C", "note": "[Example 12]", "values": [
      {"measurement": "half-life", "setting": "[1]; 2 nmol/kg", "value": 142, "unit": "h"}
    ]},
    {"smiles": "CC[C@H](C)[C@H](NC(=O)[C@H](Cc1ccccc1)NC(=O)[C@H](CCC(=O)O)NC(=O)[C@H](CCCNC(=N)N)NC(=O)[C@H](C)NC(=O)[C@H](C)NC(=O)[C@H](CCC(N)=O)NC(=O)[C@H](CCC(=O)O)NC(=O)[C@H](CCC(=O)O)NC(=O)[C@H](CC(C)C)NC(=O)[C@H](Cc1ccc(O)cc1)NC(=O)[C@H](CO)NC(=O)[C@H](CO)NC(=O)[C@@H](NC(=O)[C@H](CC(=O)O)NC(=O)[C@H](CO)NC(=O)[C@@H](NC(=O)[C@H](Cc1ccccc1)NC(=O)[C@@H](NC(=O)CNC(=O)[C@H](CCC(=O)O)NC(=O)C(C)(C)NC(=O)[C@@H](N)Cc1c[nH]cn1)[C@@H](C)O)[C@@H](C)O)C(C)C)C(=O)N[C@@H](C)C(=O)N[C@@H](Cc1c[nH]c2ccccc12)C(=O)N[C@@H](CC(C)C)C(=O)N[C@H](C(=O)N[C@@H](CCCNC(=N)N)C(=O)NCC(=O)N[C@@H](CCCNC(=N)N)C(=O)N[C@@H](CCCCNC(=O)COCCOCCNC(=O)COCCOCCNC(=O)[C@H](CCCCNC(=O)COCCOCCNC(=O)COCCOCCNC(=O)CC[C@H](NC(=O)[C@H]1CC[C@H](CNC(=O)CCCCCCCCCCCCCCCCCCC(=O)O)CC1)C(=O)O)NC(=O)COCCOCCNC(=O)COCCOCCNC(=O)CC[C@H](NC(=O)[C@H]1CC[C@H](CNC(=O)CCCCCCCCCCCCCCCCCCC(=O)O)CC1)C(=O)O)C(=O)O)C(C)C", "note": "[Example 2, N{Epsilon-37}-[2-[2-[2-[[2-[2-[2-[[(2S)-2,6-bis[[2-[2-[2-[[2-[2-[2-[[(4S)-4-carboxy-4-[[4-[(19-carboxynonadecanoylamino)methyl]cyclohexanecarbonyl]amino]butanoyl]amino]ethoxy]ethoxy]acetyl]amino]ethoxy]ethoxy]acetyl]amino]hexanoyl]amino]ethoxy]ethoxy]acetyl]amino]ethoxy]ethoxy]acetyl]-[Aib8,Glu22,Arg26,Arg34,Lys37]-GLP-1-(7-37)-peptide]", "values": [
      {"measurement": "half-life", "setting": "[1]; 15 nmol/kg", "value": 130, "unit": "h"}
    ]},
    {"smiles": "CC[C@H](C)[C@H](NC(=O)[C@H](Cc1ccccc1)NC(=O)[C@H](CCC(=O)O)NC(=O)[C@H](CCCNC(=N)N)NC(=O)[C@H](C)NC(=O)[C@H](C)NC(=O)[C@H](CCC(N)=O)NC(=O)[C@H](CCC(=O)O)NC(=O)[C@H](CCC(=O)O)NC(=O)[C@H](CC(C)C)NC(=O)[C@H](Cc1ccc(O)cc1)NC(=O)[C@H](CO)NC(=O)[C@H](CO)NC(=O)[C@@H](NC(=O)[C@H](CC(=O)O)NC(=O)[C@H](CO)NC(=O)[C@@H](NC(=O)[C@H](Cc1ccccc1)NC(=O)[C@@H](NC(=O)CNC(=O)[C@H](CCC(=O)O)NC(=O)C(C)(C)NC(=O)[C@@H](N)Cc1c[nH]cn1)[C@@H](C)O)[C@@H](C)O)C(C)C)C(=O)N[C@@H](C)C(=O)N[C@@H](Cc1c[nH]c2ccccc12)C(=O)N[C@@H](CC(C)C)C(=O)N[C@H](C(=O)N[C@@H](CCCNC(=N)N)C(=O)NCC(=O)N[C@@H](CCCNC(=N)N)C(=O)N[C@@H](CCCCNC(=O)COCCOCCNC(=O)COCCOCCNC(=O)COCCOCCNC(=O)COCCOCCNC(=O)[C@H](CCCCNC(=O)CC[C@H](NC(=O)[C@H]1CC[C@H](CNC(=O)CCCCCCCCCCCCCCCCCCC(=O)O)CC1)C(=O)O)NC(=O)CC[C@H](NC(=O)[C@H]1CC[C@H](CNC(=O)CCCCCCCCCCCCCCCCCCC(=O)O)CC1)C(=O)O)C(=O)O)C(C)C", "note": "[Example 8, N{Epsilon-37}-[2-[2-[2-[[2-[2-[2-[[2-[2-[2-[[2-[2-[2-[[(2S)-2,6-bis[[(4S)-4-carboxy-4-[[4-[(19-carboxynonadecanoylamino)methyl]cyclohexanecarbonyl]amino]butanoyl]amino]hexanoyl]amino]ethoxy]ethoxy]acetyl]amino]ethoxy]ethoxy]acetyl]amino]ethoxy]ethoxy]acetyl]amino]ethoxy]ethoxy]acetyl]-[Aib8,Glu22,Arg26,Arg34,Lys37]-GLP-1-(7-37)-peptide]", "values": [
      {"measurement": "half-life", "setting": "[1]; 5 nmol/kg", "value": 145, "unit": "h"}
    ]},
    {"smiles": "CC[C@H](C)[C@H](NC(=O)[C@H](Cc1ccccc1)NC(=O)[C@H](CCC(=O)O)NC(=O)[C@H](CCCNC(=N)N)NC(=O)[C@H](C)NC(=O)[C@H](C)NC(=O)[C@H](CCC(N)=O)NC(=O)[C@H](CCC(=O)O)NC(=O)[C@H](CCC(=O)O)NC(=O)[C@H](CC(C)C)NC(=O)[C@H](Cc1ccc(O)cc1)NC(=O)[C@H](CO)NC(=O)[C@H](CO)NC(=O)[C@@H](NC(=O)[C@H](CC(=O)O)NC(=O)[C@H](CO)NC(=O)[C@@H](NC(=O)[C@H](Cc1ccccc1)NC(=O)[C@@H](NC(=O)CNC(=O)[C@H](CCC(=O)O)NC(=O)C(C)(C)NC(=O)[C@@H](N)Cc1c[nH]cn1)[C@@H](C)O)[C@@H](C)O)C(C)C)C(=O)N[C@@H](C)C(=O)N[C@@H](Cc1c[nH]c2ccccc12)C(=O)N[C@@H](CC(C)C)C(=O)N[C@H](C(=O)N[C@@H](CCCNC(=N)N)C(=O)NCC(=O)N[C@@H](CCCNC(=N)N)C(=O)N[C@@H](CCCCNC(=O)COCCOCCNC(=O)COCCOCCNC(=O)COCCOCCNC(=O)COCCOCCNC(=O)[C@H](CCCCNC(=O)COCCOCCNC(=O)COCCOCCNC(=O)CC[C@H](NC(=O)[C@H]1CC[C@H](CNC(=O)CCCCCCCCCCCCCCCCCCC(=O)O)CC1)C(=O)O)NC(=O)COCCOCCNC(=O)COCCOCCNC(=O)CC[C@H](NC(=O)[C@H]1CC[C@H](CNC(=O)CCCCCCCCCCCCCCCCCCC(=O)O)CC1)C(=O)O)C(=O)O)C(C)C", "note": "[Example 15]", "values": [
      {"measurement": "half-life", "setting": "[1]; 2 nmol/kg", "value": 142, "unit": "h"}
    ]},
    {"smiles": "CC[C@H](C)[C@H](NC(=O)[C@H](Cc1ccccc1)NC(=O)[C@H](CCC(=O)O)NC(=O)[C@H](CCCNC(=N)N)NC(=O)[C@H](C)NC(=O)[C@H](C)NC(=O)[C@H](CCC(N)=O)NC(=O)[C@H](CCC(=O)O)NC(=O)[C@H](CCC(=O)O)NC(=O)[C@H](CC(C)C)NC(=O)[C@H](Cc1ccc(O)cc1)NC(=O)[C@H](CO)NC(=O)[C@H](CO)NC(=O)[C@@H](NC(=O)[C@H](CC(=O)O)NC(=O)[C@H](CO)NC(=O)[C@@H](NC(=O)[C@H](Cc1ccccc1)NC(=O)[C@@H](NC(=O)CNC(=O)[C@H](CCC(=O)O)NC(=O)C(C)(C)NC(=O)[C@@H](N)Cc1c[nH]cn1)[C@@H](C)O)[C@@H](C)O)C(C)C)C(=O)N[C@@H](C)C(=O)N[C@@H](Cc1c[nH]c2ccccc12)C(=O)N[C@@H](CC(C)C)C(=O)N[C@H](C(=O)N[C@@H](CCCNC(=N)N)C(=O)NCC(=O)N[C@@H](CCCNC(=N)N)C(=O)N[C@@H](CCCCNC(=O)COCCOCCNC(=O)COCCOCCNC(=O)[C@H](CCCCNC(=O)COCCOCCNC(=O)COCCOCCNC(=O)COCCOCCNC(=O)COCCOCCNC(=O)CC[C@H](NC(=O)[C@H]1CC[C@H](CNC(=O)CCCCCCCCCCCCCCCCCCC(=O)O)CC1)C(=O)O)NC(=O)COCCOCCNC(=O)COCCOCCNC(=O)COCCOCCNC(=O)COCCOCCNC(=O)CC[C@H](NC(=O)[C@H]1CC[C@H](CNC(=O)CCCCCCCCCCCCCCCCCCC(=O)O)CC1)C(=O)O)C(=O)O)C(C)C", "note": "[Example 14]", "values": [
      {"measurement": "half-life", "setting": "[1]; 2 nmol/kg", "value": 135, "unit": "h"}
    ]}
  ]
}
